# Measurements as given in a melting point compilation (Tetko et al.; mined from patent text by program, amines drawn as free bases though some values may be those of a salt).
row,SMILES,melting point
1,COC(=O)Cn1c(C)cc(Cc2ccc(F)cc2)c(NC(=O)OCc2ccccc2)c1=O,236 °C
2,CC(C)(C)OC(=O)N1CCN(c2c(F)cc(NC(=O)OCc3ccccc3)cc2F)CC1,171 to 172 °C
3,CCCOc1ccccc1-c1nc2nc(N(C)C)ncc2c(=O)[nH]1,178 °C
4,Nc1nc2ccccc2c2c1ncn2COCc1ccccc1,168 to 172 °C
5,Nc1nc2ccccc2c2c1ncn2CCCCNC(=O)c1cccc2cccnc12,91 to 93 °C
6,COc1ccc(C(=O)N2CSCC2=O)cc1,123 to 124 °C
7,CCC(OC(C)=O)c1ccc(Cl)c2nc3n(c12)CCCN3c1ccc(OC)nc1C (configuration not stated),157 to 159 °C
8,CC1COP(=O)(Cc2ccc(N)cc2)OC1 (configuration not stated),158 to 159 °C
9,C[C@H](NP(=O)(Cc1ccccc1)Cc1ccccc1)C(=O)N1CCC[C@H]1C(=O)N1CCC[C@H]1C(N)=O,89 °C
10,CCc1nc2c(C)cc(C)cc2n1-c1ccc(CCNC(=O)NS(=O)(=O)c2ccc(C)cc2)cc1,108 to 112 °C
11,BrC(c1ccccc1)(c1ccccc1)C1(c2ccccc2)OCCO1,206 °C
12,CCC1(C)C(=CC=C2C(=O)c3ccccc3C2=C(C#N)C#N)N2CCc3cccc1c32 (configuration not stated),230 °C
13,Cc1ccnc(C(=O)c2sc(Cl)nc2C)c1,115 to 116 °C
14,[N-]=[N+]=NCCCc1ccc(C(N)=O)s1,85 to 87 °C
15,CC1(CF)C=C(C#N)c2cc([N+](=O)[O-])ccc2O1 (configuration not stated),169 to 171 °C
16,CC1(C)SC(c2ccccc2OCCO[N+](=O)[O-])NC1C(=O)O (configuration not stated),98 to 101 °C
17,CCCCC1COC(c2ccc(OC(F)(F)F)cc2)OC1 (configuration not stated),23 °C
18,COc1ccc(CNc2cc(N3CCCC3CO)ccc2C(=O)NCc2ncccn2)cc1Cl (configuration not stated),102 to 107 °C
19,CSC(Oc1cc(Cl)c2ncc(Br)cc2c1)C(=O)NC(C)(C)C (configuration not stated),160 to 161 °C
20,CS(=O)(=O)CCc1nc2nc[nH]c2c2nc(-c3ccc(-c4ccccc4)cc3)nn12,280 °C
21,FC(F)(F)c1ccccc1N=C1CCCc2cc3c(nc21)C(=Nc1ccccc1C(F)(F)F)CCC3,162 to 164 °C
22,O=C(c1ccccc1Nc1ccc(O)cc1)N1CCCCC1,199 to 201 °C
23,O=C(Cl)c1cc([N+](=O)[O-])cc2c1OCCO2,108 °C
24,CNC1N=CN(c2c(Cl)cccc2Cl)C(=O)N1 (configuration not stated),270 °C
25,Cc1nc(-c2ccccc2)nc(OCC(=O)O)c1C,175 to 177 °C

row,SMILES,melting point
1,CCCC(CCC)C(=O)N[C@@H](Cc1ccccc1)C(=O)N[C@H]1CCOC1=O,203 to 205 °C
2,CCOC(=O)c1ccc(S(C)(=O)=O)nc1C(F)(F)F,70 to 72 °C
3,CCn1nc(C(F)(F)F)cc1NC(=O)C1C(C)=CC=CC1(C(N)=O)C(C)C (configuration not stated),223 to 226 °C
4,COc1ccc(C(=O)O)cc1OC(C)(C)C,177 to 178 °C
5,O=C(c1ccc2ccccc2c1)n1c2cc(O)c(O)cc2c2ccc(O)c(O)c21,266 to 270 °C
6,CSC1CCn2c(CCc3ccccc3)nc3cccc1c32 (configuration not stated),62.1 to 74.1 °C
7,Cc1ncc2cc(C(c3ccccc3)n3ccnc3)ccc2n1 (configuration not stated),130 °C
8,COc1ccc(-c2cc(CO)c(=O)n(Cc3ccc(F)c(F)c3)n2)cc1F,154 to 156 °C
9,CCCCNC(=O)C(=O)Nc1ccc(OC)cc1N,180 to 181 °C
10,CCCc1c(N)c(C(N)=O)nn1C,170 to 174 °C
11,COc1cccc(Nc2n[nH]c3ncnc(Nc4cccc(Cl)c4)c23)c1,202 to 203 °C
12,O=S(=O)(c1ccc(O)cc1)N1c2ccccc2-c2ccccc2C1c1ccccc1 (configuration not stated),210 to 212 °C
13,O=C1CC(c2ccc([N+](=O)[O-])cc2)=Nc2cccc(C(F)(F)F)c21,> 260 °C
14,CCOc1ccc2c(c1)n(C1CCOCC1)c(=O)n2S(=O)(=O)c1ccc(C(=O)OC)cc1OC,165 °C
15,O=C(NCC1CC1)N1CC(Oc2cccc(C(F)(F)F)c2)C1,132 to 133 °C
16,CCOC(=O)c1cn(-c2cccc(OC)c2)cn1,95 to 96 °C
17,O=C(c1cccc(O)c1)c1nn(C2CCCC2)c2c(C(F)(F)F)cccc12,152 °C
18,COC(=O)n1cc2c(c1)-c1ccc(Cl)cc1C(c1ccccc1Cl)=[N+]([O-])C2,224 to 226 °C
19,COc1cc2c(cc1Nc1ncc(C(F)(F)F)c(Nc3ccc(N4CCOCC4)cc3OC)n1)N(C)C(=O)OCC2,221 to 223 °C
20,CC(C(=O)N(C)C)n1cc(Cl)c(-c2ccccc2)n1 (configuration not stated),73.5 to 75 °C
21,COCCCn1c(COc2ccccc2)nc2c(N)nc3ccccc3c21,152 °C
22,Nc1ccc(Cl)c(S(=O)c2ccccc2)c1 (configuration not stated),152 to 155 °C
23,COc1cccc(C(=O)C=Cc2ccc(OC)cc2OC)c1,75.6 to 78.9 °C
24,O=C1C[C@H](NC(=O)C(F)(F)F)C(=O)O1,116 to 118 °C
25,Cc1c(-c2ccccn2)c(N2CC[C@H](N(C)C)C2)c2oc(C3CC3)nc2c1C#N,150 to 151 °C

row,SMILES,melting point
1,CNC(=O)c1ccccc1Nc1nc(Nc2ccc3c(c2)CCC(F)(F)CC3)ncc1Cl,160 to 168 °C
2,CCOC(=O)C1=C(C)NC(CCn2ccnc2)=C(C(=O)OCC)C1c1ccccc1[N+](=O)[O-] (configuration not stated),140 to 141 °C
3,NS(=O)c1ncnc2c1ccn2C1CC(O)C(CO)O1 (configuration not stated),170 to 172 °C
4,CC(C)CCc1sc(NC(=O)c2cc([N+](=O)[O-])cn2C)nc1C(=O)O,296 to 300 °C
5,O=C(Oc1cc(-c2ccccc2)c2ccccc2n1)N1CCCCC1,85 °C
6,C[C@@H](NC(=O)c1c(N)cc(Cl)cc1Cl)c1ccccc1,115 to 119 °C
7,CC(C)c1csc(/C=C/c2cc(NC(=O)Cc3ccccc3C(=O)O)ccc2Cl)n1,204 to 206 °C
8,CC1(C)CCC(C)(C)c2c(OS(=O)(=O)C(F)(F)F)cc(-c3ccccc3)cc21,110 °C
9,CCc1nc2c(cnn2CC)c(NC2CCOCC2)c1CNC(=O)c1cccc(C(=O)NCc2ccc(C)c(-c3cccc(CN4CCCNCC4)c3)c2)c1,118 to 120 °C
10,O=C(CNC(=O)c1ccccc1)NC1CCN(CCc2c[nH]c3ccccc23)CC1,236 to 240 °C
11,CS(=O)(=O)c1ccc(-c2sc(-c3ccccc3Cl)nc2-c2ccc(F)cc2F)cc1,166 to 169 °C
12,Cc1cc(C(O)C[N+](=O)[O-])cc(C)c1Oc1ccc([N+](=O)[O-])c(Nc2ccc(C#N)cc2)n1 (configuration not stated),230 to 234 °C
13,CCc1cc(C(=O)c2ccccc2F)c(-n2c(C)nnc2CNC(=O)c2cc3ccccc3[nH]2)s1,255 to 256 °C
14,Cc1ccc(CN(c2ccccc2CC(=O)O)c2c(Cl)cccc2Cl)cc1,154 to 158 °C
15,COC1NC(=O)N(C2CCCCC2)C1=O (configuration not stated),135 to 137 °C
16,COC(=O)CCCCOc1ccc2nc3[nH]c(=O)[nH]c3cc2c1,281 to 282 °C
17,O=C(c1ccccc1C(c1ccc(O)cc1)c1ccc(O)cc1)N(c1ccccc1)c1ccccc1,262 to 263 °C
18,CC(C)(C)c1ccc(C(N)=O)cc1N,140 to 142 °C
19,COC(=O)[C@@](C#N)(COCc1ccccc1)[C@H](c1ccccc1OC)c1cccc2ccccc12 (relative stereo),133 to 134 °C
20,CS(=O)(=O)c1cccc(NC(=O)c2cnn3c(C(F)(F)F)cc(-c4ccc(F)c(F)c4)nc23)c1,256 °C
21,Cn1cncc1C(O)(c1ccc(Cl)cc1)c1ccc2c(c1)c(-c1nc(-c3ccccc3)cs1)cc(=O)n2C (configuration not stated),200 °C
22,C[C@@H]1CN(C(=O)OC(C)(C)C)Cc2cc3cc(F)cnc3n21,85 to 87 °C
23,COc1cc(Cl)nc(S(C)(=O)=O)n1,68 to 74 °C
24,CSc1ccc(-c2c(C#N)cnn2-c2ccc(F)cc2)cc1,122 to 123 °C
25,CC(=O)SCc1nccc(SCCCSc2ccc3ncc([N+](=O)[O-])n3n2)c1C,138 to 140 °C

row,SMILES,melting point
1,CC(C)(C)OC(=O)N1CCC(c2ccc(Nc3nc4c(-c5ccc(F)cc5)cccn4n3)cc2)CC1,88 to 91 °C
2,CN1C(=O)C(Cc2ccccc2)(c2ccccc2OCCCCBr)c2ccccc21 (configuration not stated),174 to 175 °C
3,Cn1cc(-c2ccccc2)c(=O)c(-c2cc(Cl)ccc2Cl)c1,156 °C
4,CSc1ccc(C(=O)C#CCO)cc1,73 to 74 °C
5,CCCCOCCOc1ccc(-c2ccc3c(c2)C=C(C(=O)Nc2ccc(S(=O)Cc4nncn4CCCC)cc2)CCN3CC(C)C)cc1 (configuration not stated),178 to 180 °C
6,COc1c(Nc2ncc3ccc(-c4ccccc4N(C)S(C)(=O)=O)n3n2)cccc1C1CCN(C)CC1,92 to 101 °C
7,COc1cccc2c1Sc1ccccc1C21CCN(C#N)CC1,145 to 146 °C
8,O=C(O)C(CBr)(CBr)CBr,83 to 86 °C
9,N#Cc1cc([N+](=O)[O-])ccc1N1CCOCC1,138 to 140 °C
10,CCCCCCCCCCCCc1ccc(C(OC(C)=O)C(COC(C)=O)NC(C)=O)s1 (configuration not stated),105 to 107 °C
11,CS(=O)(=O)c1ccc(-n2nc(CNC(=O)NC3CCCCCC3)cc2-c2ccccc2)cc1,104 to 110 °C
12,CSc1nc(-c2cc(N)ccc2C)c2c(n1)N(c1c(F)cccc1F)C(=O)NC2,122 to 125 °C
13,COc1ccc2c(c1)CC=C(C=Cc1ccc(C#N)cc1)O2,224 to 226 °C
14,C#Cc1ccc2cc(OC)ccc2c1,111 to 112 °C
15,O=C(O)c1cc(OCc2ccccc2)ccc1OCc1ccccc1,107 to 108 °C
16,O=C(NCc1ccccc1)c1cn2c(=O)n(Cc3ccc(Cl)c(Cl)c3)c(=O)cc2s1,216 to 217 °C
17,CC1CN(c2c(F)cc3c(=O)c(C(=O)O)cn(C(C)C)c3c2F)CCN1 (configuration not stated),217 to 218 °C
18,O=c1nc(-c2cccc(Cl)c2)c2cc(C(c3ccc(Cl)cc3)n3ccnc3-c3ccccc3)ccc2[nH]1 (configuration not stated),170 °C
19,NC(=O)Cc1cccc(C(=O)c2ccccc2)c1N,178 to 180 °C
20,CCOC(=O)C1COc2cc(OC(C)=O)ccc2O1 (configuration not stated),66 °C
21,COc1ccc(-c2cc(=O)n(CC3CC3)nc2-c2ccc(OC)c(F)c2)cc1F,142 to 143 °C
22,CCn1cc(Cl)nc(S(=O)(=O)CC(=O)Nc2ccccc2)c1=O,178 to 180 °C
